Results published in PubChem BioAssay (NCI).
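Assay format: 96-well plates, 48-hour exposure. The concentration for full growth arrest is given as TGI.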

Tests used:
Experiment in all cases: NCI tumour cell line growth inhibition, 48 h
[1] = tested on: OVCAR-8 ovarian
[2] = tested on: OVCAR-5 ovarian
[3] = tested on: HCT-15 colon
[4] = tested on: SF-539 CNS
[5] = tested on: DMS 114 small cell lung
[6] = tested on: RXF 393 renal
[7] = tested on: SF-295 CNS
[8] = tested on: RPMI-8226 leukemia
[9] = tested on: HOP-92 NSCLC
[10] = tested on: SK-OV-3 ovarian
[11] = tested on: SK-MEL-2 melanoma
[12] = tested on: UO-31 renal
[13] = tested on: HL-60(TB) leukemia
[14] = tested on: IGROV1 ovarian
[15] = tested on: HOP-62 NSCLC
[16] = tested on: NCI-H522 lung
[17] = tested on: DMS 273 small cell lung
[18] = tested on: DLD-1 colon
[19] = tested on: HT29 colon
[20] = tested on: COLO 205 colon
[21] = tested on: SNB-19 CNS
[22] = tested on: KM12 colon
[23] = tested on: M19-MEL melanoma
[24] = tested on: LXFL 529 NSCLC
[25] = tested on: UACC-257 melanoma
[26] = tested on: HOP-18 NSCLC
[27] = tested on: U251 CNS
[28] = tested on: A549 NSCLC
[29] = tested on: NCI-H226 lung
[30] = tested on: LOX IMVI melanoma
[31] = tested on: SNB-78 CNS
[32] = tested on: SN12C renal
[33] = tested on: M14 melanoma
[34] = tested on: CCRF-CEM leukemia
[35] = tested on: SW-620 colon
[36] = tested on: A498 renal
[37] = tested on: SR leukemia
[38] = tested on: OVCAR-4 ovarian
[39] = tested on: K-562 leukemia
[40] = tested on: HCC-2998 colon
[41] = tested on: ACHN renal
[42] = tested on: MOLT-4 leukemia
[43] = tested on: SNB-75 CNS
[44] = tested on: SK-MEL-5 melanoma
[45] = tested on: 786-0 renal
[46] = tested on: CAKI-1 renal
[47] = tested on: KM20L2 colon
[48] = tested on: MALME-3M melanoma
[49] = tested on: HCT-116 colon
[50] = tested on: TK-10 renal
[51] = tested on: SF-268 CNS
[52] = tested on: NCI-H460 lung
[53] = tested on: UACC-62 melanoma
[54] = tested on: OVCAR-3 ovarian
[55] = tested on: NCI-H23 lung
[56] = tested on: EKVX NSCLC
[57] = tested on: SK-MEL-28 melanoma
[58] = tested on: T-47D breast
[59] = tested on: MDA-N
[60] = tested on: MDA-MB-231 breast
[61] = tested on: NCI/ADR-RES ovarian
[62] = tested on: DU-145 prostate
[63] = tested on: HS 578T breast
[64] = tested on: MDA-MB-435
[65] = tested on: BT-549 breast
[66] = tested on: PC-3 prostate
[67] = tested on: MCF7 breast

SMILES: O=C1/C(=N\O)c2ccccc2S1(=O)=O
- TGI [1]: > 100 µM
- TGI [2]: > 100 µM
- TGI [3]: > 100 µM
- TGI [4]: > 100 µM
- TGI [5]: > 100 µM
- TGI [6]: > 100 µM
- TGI [7]: > 100 µM
- TGI [8]: > 100 µM
- TGI [9]: > 100 µM
- TGI [10]: > 100 µM
- TGI [11]: > 100 µM
- TGI [12]: > 100 µM
- TGI [13]: > 100 µM
- TGI [14]: > 100 µM
- TGI [15]: > 100 µM
- TGI [16]: > 100 µM
- TGI [17]: > 100 µM
- TGI [18]: > 100 µM
- TGI [19]: > 100 µM
- TGI [20]: 73.6 µM
- TGI [21]: > 100 µM
- TGI [22]: > 100 µM
- TGI [23]: > 100 µM
- TGI [24]: > 100 µM
- TGI [25]: > 100 µM
- TGI [26]: > 100 µM
- TGI [27]: > 100 µM
- TGI [28]: > 100 µM
- TGI [29]: > 100 µM
- TGI [30]: > 100 µM
- TGI [31]: > 100 µM
- TGI [32]: > 100 µM
- TGI [33]: > 100 µM
- TGI [34]: > 100 µM
- TGI [35]: > 100 µM
- TGI [36]: > 100 µM
- TGI [37]: > 100 µM
- TGI [38]: > 100 µM
- TGI [39]: > 100 µM
- TGI [40]: > 100 µM
- TGI [41]: > 100 µM
- TGI [42]: > 100 µM
- TGI [43]: > 100 µM
- TGI [44]: > 100 µM
- TGI [45]: > 100 µM
- TGI [46]: 83.7 µM
- TGI [47]: > 100 µM
- TGI [48]: > 100 µM
- TGI [49]: > 100 µM
- TGI [50]: > 100 µM
- TGI [51]: > 100 µM
- TGI [52]: > 100 µM
- TGI [53]: > 100 µM

SMILES: CC(=O)OC1CC2CCN3C(=O)c4cc5c(cc4[C@H](C1OC(C)=O)C23)OCO5 (some centres undefined)
- TGI [1]: > 100 µM
- TGI [54]: > 100 µM
- TGI [3]: > 100 µM
- TGI [4]: > 100 µM
- TGI [6]: > 100 µM
- TGI [7]: > 100 µM
- TGI [8]: > 100 µM
- TGI [10]: > 100 µM
- TGI [12]: > 100 µM
- TGI [13]: > 100 µM
- TGI [14]: > 100 µM
- TGI [15]: > 100 µM
- TGI [16]: > 100 µM
- TGI [55]: > 100 µM
- TGI [17]: > 100 µM
- TGI [18]: > 100 µM
- TGI [19]: > 100 µM
- TGI [20]: > 100 µM
- TGI [56]: > 100 µM
- TGI [21]: > 100 µM
- TGI [22]: > 100 µM
- TGI [23]: > 100 µM
- TGI [24]: > 100 µM
- TGI [25]: > 100 µM
- TGI [57]: > 100 µM
- TGI [27]: > 100 µM
- TGI [28]: > 100 µM
- TGI [29]: > 100 µM
- TGI [30]: > 100 µM
- TGI [31]: > 100 µM
- TGI [32]: > 100 µM
- TGI [33]: > 100 µM
- TGI [34]: > 100 µM
- TGI [35]: > 100 µM
- TGI [37]: > 100 µM
- TGI [39]: > 100 µM
- TGI [40]: > 100 µM
- TGI [41]: > 100 µM
- TGI [42]: > 100 µM
- TGI [43]: > 100 µM
- TGI [45]: > 100 µM
- TGI [47]: > 100 µM
- TGI [48]: > 100 µM
- TGI [49]: > 100 µM
- TGI [50]: > 100 µM
- TGI [51]: > 100 µM
- TGI [52]: > 100 µM
- TGI [53]: > 100 µM

SMILES: COC(=O)C(Cc1nc2ccccc2[nH]c1=O)/C(=N\NC(C)(C)C)C(=O)Nc1c(C)cc(Br)cc1C (centres undefined)
- TGI [1]: 54.2 µM
- TGI [2]: > 100 µM
- TGI [3]: 48.2 µM
- TGI [4]: 44.5 µM
- TGI [5]: 68.8 µM
- TGI [7]: > 100 µM
- TGI [8]: > 100 µM
- TGI [9]: 45.5 µM
- TGI [10]: > 100 µM
- TGI [11]: > 100 µM
- TGI [12]: > 100 µM
- TGI [14]: > 100 µM
- TGI [15]: > 100 µM
- TGI [16]: 29 µM
- TGI [55]: 78 µM
- TGI [18]: 48.8 µM
- TGI [19]: > 100 µM
- TGI [20]: 36.5 µM
- TGI [56]: > 100 µM
- TGI [21]: > 100 µM
- TGI [22]: > 100 µM
- TGI [23]: 90.7 µM
- TGI [24]: 47.9 µM
- TGI [25]: > 100 µM
- TGI [57]: 51.8 µM
- TGI [27]: 49.9 µM
- TGI [28]: > 100 µM
- TGI [29]: 54.4 µM
- TGI [30]: 40.7 µM
- TGI [31]: > 100 µM
- TGI [32]: > 100 µM
- TGI [33]: 49.3 µM
- TGI [34]: 57.3 µM
- TGI [35]: 80.1 µM
- TGI [36]: 69.5 µM
- TGI [37]: 76.2 µM
- TGI [38]: > 100 µM
- TGI [39]: > 100 µM
- TGI [40]: > 100 µM
- TGI [41]: > 100 µM
- TGI [42]: 28.7 µM
- TGI [44]: 55.3 µM
- TGI [45]: 34.4 µM
- TGI [46]: 88.9 µM
- TGI [48]: 62.2 µM
- TGI [49]: 37 µM
- TGI [51]: 77.7 µM
- TGI [52]: > 100 µM
- TGI [53]: 44.9 µM

SMILES: Cc1sc2[nH]c(=O)oc(=O)c2c1C
- TGI [1]: > 100 µM
- TGI [2]: > 100 µM
- TGI [58]: > 100 µM
- TGI [54]: > 100 µM
- TGI [3]: > 100 µM
- TGI [4]: > 100 µM
- TGI [6]: > 100 µM
- TGI [7]: > 100 µM
- TGI [8]: > 100 µM
- TGI [9]: > 100 µM
- TGI [10]: > 100 µM
- TGI [11]: > 100 µM
- TGI [12]: > 83.3 µM
- TGI [13]: > 100 µM
- TGI [14]: > 100 µM
- TGI [15]: > 100 µM
- TGI [16]: > 83.1 µM
- TGI [55]: > 100 µM
- TGI [19]: > 100 µM
- TGI [20]: > 100 µM
- TGI [56]: > 100 µM
- TGI [21]: > 100 µM
- TGI [22]: > 93.3 µM
- TGI [59]: > 100 µM
- TGI [25]: > 100 µM
- TGI [57]: > 100 µM
- TGI [27]: > 100 µM
- TGI [60]: > 100 µM
- TGI [28]: > 100 µM
- TGI [29]: > 100 µM
- TGI [30]: > 100 µM
- TGI [32]: > 100 µM
- TGI [33]: > 100 µM
- TGI [34]: > 100 µM
- TGI [61]: > 100 µM
- TGI [62]: > 100 µM
- TGI [35]: > 100 µM
- TGI [63]: > 71 µM
- TGI [36]: > 100 µM
- TGI [37]: > 100 µM
- TGI [38]: > 100 µM
- TGI [39]: > 100 µM
- TGI [64]: > 100 µM
- TGI [40]: > 100 µM
- TGI [65]: > 86.6 µM
- TGI [41]: > 100 µM
- TGI [42]: > 100 µM
- TGI [43]: > 100 µM
- TGI [44]: > 100 µM
- TGI [45]: > 100 µM
- TGI [46]: > 100 µM
- TGI [48]: > 100 µM
- TGI [49]: > 100 µM
- TGI [50]: > 100 µM
- TGI [66]: > 100 µM
- TGI [67]: > 78.9 µM
- TGI [51]: > 100 µM
- TGI [52]: > 100 µM
- TGI [53]: > 100 µM
